Patent publication US10450260B2, “NO- and H2S-releasing compounds” (RESEARCH FOUNDATION OF THE CITY UNIVERSITY OF NEW YORK, priority 2011, dated 2019)

Tests used:
Format in all cases: cell-based
[1] = system: SW-480 human colon adenocarcinoma; test: MTT cell growth inhibition, SW480; settings: for IC50: Homo sapiens, SW480; for Ratio NSAID/NOSH-NSAID, SW480: fold-enhancement in potency over the parent compound
Description: (§1) All cells lines were grown as monolayers except for the Jurkats which were grown in suspension. […] All media were supplemented with 10% fetal calf serum (Invitrogen, Carlsbad, Calif.) penicillin (50 U/ml), and streptomycin (50 μg/ml) (Invitrogen, Carlsbad, Calif.). Cells were seeded on culture dishes at a density of 25×10^3 cells/cm^2 and incubated at 37° C. in 5% CO2 and 90% relative humidity. Single cell suspensions were obtained by trypsinization (0.05% trypsin/EDTA), and cells were counted using a hemocytometer. Viability was determined by the trypan blue dye exclusion method.
(§2) Cell growth inhibitory effect of NOSH compounds were measured using a colorimetric MTT assay kit (Roche, Indianapolis, Ind.). Cancer cells were plated in 96-well plates at a density of 50,000 cells/well. The cells were incubated for 24 h with different concentrations of NOSH compounds. After the indicated time, 10 μl of MTT dye (3-[4,5-dimethylthiazol-2-yl]-2,5-diphenyl tetrazolium bromide, 5 mg/ml in phosphate buffered saline), was added to each well, and the plates were incubated for 2 hours at 37° C. Then, the media was aspirated, and add 100 μl of the solubilization solution (10% SDS in 0.01 M HCl) was added to each well to solubilize the formant crystals. The absorbance of the plates was measured on an ELISA reader at a wavelength of 570 nm. Each sample was performed in triplicate, and the entire experiment was repeated three times.
(§3) All media were supplemented with 10% fetal calf serum (Invitrogen, Carlsbad, Calif.) penicillin (50 U/ml), and streptomycin (50 μg/ml) (Invitrogen, Carlsbad, Calif.). Cells were seeded on culture dishes at a density of 25×10^3 cells/cm^2 and incubated at 37° C. in 5% CO2 and 90% relative humidity. Single cell suspensions were obtained by trypsinization (0.05% trypsin/EDTA), and cells were counted using a hemacytometer. The final DMSO concentration was adjusted in all media to 1%. Viability was determined by the trypan blue dye exclusion method.
(§4) Cell growth inhibitory effect of all NOSH-NSAIDs was measured using a colorimetric MTT assay kit (Roche, Indianapolis, Ind.). Cancer cells were plated in 96-well plates at a density of 30,000-50,000 cells/well depending on cell type. The cells were incubated for 24 hours with different concentrations of NOSH-NSAIDs. After the indicated time, 10 μL of MTT dye (3-[4,5-dimethylthiazol-2-yl]-2,5-diphenyl tetrazolium bromide, 5 mg/mL in phosphate buffered saline), was added to each well, and the plates were incubated for 2 hours at 37° C. Then, the media was aspirated, and 100 μL of the solubilization solution (10% SDS in 0.01 M HCl) was added to each well to solubilize the formant crystals. The absorbance of the plates was measured on a spectrophotometric plate reader at a wavelength of 570 nm. Each experiment was performed in triplicate, and the entire experiment was repeated three times.

[2] = system: MDA-MB 231 human breast cancer; test: MTT cell growth inhibition, MDA MB231; settings: for IC50: Homo sapiens, MDA-MB-231; for Ratio NSAID/NOSH-NSAID, MDA MB231: fold-enhancement in potency over the parent compound
Description: (§5) HT-29, SW-480 and HCT-15 human colon adenocarcinoma, MIA PaCa-2 and BxPC-3 human pancreatic cancer, LNCAP human prostate cancer, A549 human lung cancer, MCF-7 (estrogen receptor positive), MDA-MB 231 and SK-BR-3 (estrogen receptor negative) human breast cancer, and Jurkats human leukemia cell lines were obtained from American Type Tissue Collection (Manassas, Va.). All cells lines were grown as monolayers except for the Jurkats which were grown in suspension. The pancreatic and breast cancer cells were grown in Dulbecco's modified Eagle's medium, the prostate, Jurkat, SW-480 and HCT-15 colon cells were grown in RPMI 1640 medium, the lung cells were grown in F-12 and the colon HT-29 cells were grown in McCoy 5A. All media were supplemented with 10% fetal calf serum (Invitrogen, Carlsbad, Calif.) penicillin (50 U/ml), and streptomycin (50 μg/ml) (Invitrogen, Carlsbad, Calif.). Cells were seeded on culture dishes at a density of 25×10^3 cells/cm^2 and incubated at 37° C. in 5% CO2 and 90% relative humidity. Single cell suspensions were obtained by trypsinization (0.05% trypsin/EDTA), and cells were counted using a hemocytometer. Viability was determined by the trypan blue dye exclusion method.
as §2
(§6) HT-29, SW-480 and HCT-15 human colon adenocarcinoma, MIA PaCa-2 and BxPC-3 human pancreatic cancer, LNCAP human prostate cancer, A549 and H383 human lung cancer, MCF-7, MDA-MB 231 and SK-BR-3 human breast cancer and Jurkat T cell human leukemia cell lines were obtained from American Type Tissue Collection (Manassas, Va.) All cells lines were grown as monolayers except for the Jurkat T cells which were grown as suspension culture. The pancreatic and breast cancer cells were grown in Dulbecco's modified Eagle's medium, the prostate, Jurkat, SW-480 and HCT-15 colon cells were grown in RPMI 1640 medium, the lung cells were grown in F-12 and the colon HT-29 cells were grown in McCoy 5A. All media were supplemented with 10% fetal calf serum (Invitrogen, Carlsbad, Calif.) penicillin (50 U/ml), and streptomycin (50 μg/ml) (Invitrogen, Carlsbad, Calif.). Cells were seeded on culture dishes at a density of 25×10^3 cells/cm^2 and incubated at 37° C. in 5% CO2 and 90% relative humidity. Single cell suspensions were obtained by trypsinization (0.05% trypsin/EDTA), and cells were counted using a hemacytometer. The final DMSO concentration was adjusted in all media to 1%. Viability was determined by the trypan blue dye exclusion method.
as §4, with “The absorbance of the plates was measured on a spectrophotometric plate reader at a wavelength of 570 nm. Each experiment was performed in triplicate, and the entire experiment was repeated three times.” left out

[3] = system: HCT-15 human colon adenocarcinoma; test: MTT cell growth inhibition, HCT15; settings: for IC50: Homo sapiens, HCT-15; for Ratio NSAID/NOSH-NSAID, HCT15: fold-enhancement in potency over the parent compound
Description: as §1, §2, §3, §4

[4] = system: LNCAP human prostate cancer; test: MTT cell growth inhibition, LNCAP; settings: for IC50: Homo sapiens, LNCaP; for Ratio NSAID/NOSH-NSAID, LNCAP: fold-enhancement in potency over the parent compound
Description: as §5, §2, §6
as §4, with “The absorbance of the plates was measured on a spectrophotometric plate reader at a wavelength of 570 nm. Each experiment was performed in triplicate, and the entire experiment was repeated three times.” left out

Structure (SMILES) | IC50 ([1]; 24 hours) | IC50 ([2]; 24 hours) | IC50 ([3]; 24 hours) | IC50 ([4]; 24 hours) | IC50 ([1]; 24 hours (Table 7)) | Ratio NSAID/NOSH-NSAID, SW480 [1] | IC50 ([2]; 24 hours (Table 7)) | Ratio NSAID/NOSH-NSAID, MDA MB231 [2] | IC50 ([3]; 24 hours (Table 7)) | Ratio NSAID/NOSH-NSAID, HCT15 [3] | IC50 ([4]; 24 hours (Table 7)) | Ratio NSAID/NOSH-NSAID, LNCAP [4]
O=C(CCCO[N+](=O)[O-])Oc1ccccc1C(=O)Oc1ccc(-c2cc(=S)ss2)cc1 [NOSH-1, 4-(3-thioxo-3H-1,2-dithiol-5-yl)phenyl 2-((4-(nitrooxy)butanoyl)oxy)benzoate] | 0.06 ± 0.004 µM | 0.1 ± 0.011 µM | 0.05 ± 0.005 µM | 0.088 ± 0.008 µM | – | – | – | – | – | – | – | –
O=C(CCCC[C@@H]1CCSS1)Oc1ccccc1C(=O)OCCCCO[N+](=O)[O-] [NOSH-4, (R)-4-(nitrooxy)butyl 2-((5-(1,2-dithiolan-3-yl)pentanoyl)oxy)benzoate] | 0.6 ± 0.025 µM | 0.8 ± 0.022 µM | 0.52 ± 0.021 µM | 0.5 ± 0.018 µM | – | – | – | – | – | – | – | –
CC(C(=O)Oc1ccc(-c2cc(=S)ss2)cc1)c1ccc2cc(OC(=O)CCCO[N+](=O)[O-])ccc2c1 (stereo not shown) [NOSH-7, 6-(1-oxo-1-(4-(3-thioxo-3H-1,2-dithiol-5-yl)phenoxy)propan-2-yl)naphthalen-2-yl 4-(nitrooxy)butanoate] | – | – | – | – | 0.098 µM | 31,734 | 0.11 µM | 26,363 | 0.1 µM | 28,500 | 0.13 µM | 23,000
CC1=C(CC(=O)Oc2ccc(OC(=O)CCCO[N+](=O)[O-])c(C(=O)Oc3ccc(-c4cc(=S)ss4)cc3)c2)c2cc(F)ccc2/C1=C/c1ccc([S+](C)[O-])cc1 (stereo not shown) [NOSH-8, (E)-4-(3-thioxo-3H-1,2-dithiol-5-yl)phenyl 5-(2-(5-fluoro-2-methyl-1-(4-(methylsulfinyl)benzylidene)-1H-inden-3-yl)acetoxy)-2-((4-(nitrooxy)butanoyl)oxy)benzoate] | – | – | – | – | 0.11 µM | 6,454 | 0.098 µM | 9,540 | 0.11 µM | 7,727 | 0.09 µM | 9,000
COc1ccc2cc([C@H](C)C(=O)O)ccc2c1 [naproxen, reference compound] | – | – | – | – | – | – | 2900 µM | – | – | – | – | –
CC1=C(CC(=O)O)c2cc(F)ccc2/C1=C\c1ccc([S+](C)[O-])cc1 (stereo not shown) [sulindac, reference compound] | – | – | – | – | 710 µM | – | 935 µM | – | 850 µM | – | 810 µM | –

Further lines, with some results ahead:

IC50 ([1]; 24 hours) | IC50 ([2]; 24 hours) | IC50 ([3]; 24 hours) | IC50 ([4]; 24 hours) | Structure (SMILES) | IC50 ([1]; 24 hours (Table 7)) | Ratio NSAID/NOSH-NSAID, SW480 [1] | IC50 ([2]; 24 hours (Table 7)) | Ratio NSAID/NOSH-NSAID, MDA MB231 [2] | IC50 ([3]; 24 hours (Table 7)) | Ratio NSAID/NOSH-NSAID, HCT15 [3] | IC50 ([4]; 24 hours (Table 7)) | Ratio NSAID/NOSH-NSAID, LNCAP [4]
0.097 ± 0.007 µM | 0.085 ± 0.008 µM | 0.09 ± 0.006 µM | 0.1 ± 0.012 µM | O=C(CCC(=O)Oc1ccccc1C(=O)Oc1ccc(-c2cc(=S)ss2)cc1)OCCCCO[N+](=O)[O-] [NOSH-2, 4-(nitrooxy)butyl (2-((4-(3-thioxo-3H-1,2-dithiol-5-yl)phenoxy)carbonyl)phenyl) succinate] | – | – | – | – | – | – | – | –
5.3 ± 0.24 µM | 6 ± 0.22 µM | 5.9 ± 0.305 µM | 4.3 ± 0.212 µM | NC(=S)c1ccc(OC(=O)c2ccccc2OC(=O)CCCO[N+](=O)[O-])cc1 [NOSH-3, 4-carbamothioylphenyl 2-((4-(nitrooxy)butanoyl)-oxy)benzoate] | – | – | – | – | – | – | – | –
